Measurements as given in PubChem BioAssay AID1963851 (Molecular Pharmacology Branch, DTP, NCI, 2024).

System: 188146-221-R-J1-PDC complex spheroid viability
Assay: Anticancer human tumor 188146-221-R-J1-PDC patient-derived colon adenocarcinoma cell line growth inhibition [POLQ]
Conditions: for IC50: curve of first compound; for viability, T/C: stronger effect = lower value
How it was run: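 Complex spheroid viability model combining PDC tumour cells with endothelial (HUVEC) and MSC stromal cells. Novobiocin, ART-558 or RP6685 were tested singly and in combination with standard and investigational anticancer drugs. Each was titrated in half-log steps from near clinical Cmax, or from 10 microM where Cmax was unknown.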

[1] = second compound 0.0316 µM, first compound 0.0316 µM
[2] = second compound 0.0316 µM, first compound 0.1 µM
[3] = second compound 0.1 µM, first compound 0.0316 µM
[4] = second compound 0.1 µM, first compound 0.1 µM
[5] = second compound 0.316 µM, first compound 0.0316 µM
[6] = second compound 0.316 µM, first compound 0.1 µM
[7] = second compound 1 µM, first compound 0.0316 µM
[8] = second compound 1 µM, first compound 0.1 µM
[9] = second compound 3.16 µM, first compound 0.0316 µM
[10] = second compound 3.16 µM, first compound 0.1 µM
[11] = second compound 10 µM, first compound 0.0316 µM
[12] = second compound 10 µM, first compound 0.1 µM
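Further: spheroids exposed to compounds for seven days.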
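Wherever viability, T/C is given: 100% = DMSO vehicle control viability.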

Question: Which IC50 (second compound 0.0316 µM) does the source give for CCc1cc2c(N3CCc4c(cc(Cn5ccnc5)cc4-c4cn(C)nc4C(F)(F)F)C3=O)cc(C)nc2c(OC)n1 + Cc1cccc(N(C)C(=O)C2C(O)CCN2c2nc(C)cc(C(F)(F)F)c2C#N)c1 here?
Answer: 7.64 µM

Question: What about the IC50 (second compound 0.1 µM) of the same compound?
Answer: 6.71 µM

Question: And the IC50 (second compound 0.316 µM)?
Answer: 6.91 µM

Question: What about the IC50 (second compound 1 µM) of the same compound?
Answer: 7.65 µM

Question: What about the IC50 (second compound 3.16 µM) of the same compound?
Answer: 6.58 µM

Question: And the IC50 (second compound 10 µM)?
Answer: 5.43 µM

Question: What about the viability, T/C [1] of the same compound?
Answer: 105%

Question: What about the viability, T/C [2] of the same compound?
Answer: 90.4%

Question: And the viability, T/C (second compound 0.0316 µM, first compound 0.316 µM)?
Answer: 87%

Question: What about the viability, T/C (second compound 0.0316 µM, first compound 1 µM) of the same compound?
Answer: 84.9%

Question: What about the viability, T/C (second compound 0.0316 µM, first compound 3.16 µM) of the same compound?
Answer: 65.7%

Question: What about the viability, T/C (second compound 0.0316 µM, first compound 10 µM) of the same compound?
Answer: 44.5%

Question: What about the viability, T/C [3] of the same compound?
Answer: 95.9%

Question: What about the viability, T/C [4] of the same compound?
Answer: 90.9%

Question: And the viability, T/C (second compound 0.1 µM, first compound 0.316 µM)?
Answer: 96%

Question: And the viability, T/C (second compound 0.1 µM, first compound 1 µM)?
Answer: 86.4%

Question: What about the viability, T/C (second compound 0.1 µM, first compound 3.16 µM) of the same compound?
Answer: 68.4%

Question: And the viability, T/C (second compound 0.1 µM, first compound 10 µM)?
Answer: 40.3%

Question: What about the viability, T/C [5] of the same compound?
Answer: 112%

Question: What about the viability, T/C [6] of the same compound?
Answer: 94%

Question: And the viability, T/C (second compound 0.316 µM, first compound 0.316 µM)?
Answer: 106%

Question: And the viability, T/C (second compound 0.316 µM, first compound 1 µM)?
Answer: 98.2%

Question: What about the viability, T/C (second compound 0.316 µM, first compound 3.16 µM) of the same compound?
Answer: 67%

Question: And the viability, T/C (second compound 0.316 µM, first compound 10 µM)?
Answer: 41.9%

Question: What about the viability, T/C [7] of the same compound?
Answer: 93.8%

Question: And the viability, T/C [8]?
Answer: 87.3%

Question: And the viability, T/C (second compound 1 µM, first compound 0.316 µM)?
Answer: 107%

Question: And the viability, T/C (second compound 1 µM, first compound 1 µM)?
Answer: 88.5%

Question: What about the viability, T/C (second compound 1 µM, first compound 3.16 µM) of the same compound?
Answer: 72.9%

Question: And the viability, T/C (second compound 1 µM, first compound 10 µM)?
Answer: 43.1%

Question: What about the viability, T/C [9] of the same compound?
Answer: 101%

Question: And the viability, T/C [10]?
Answer: 100%

Question: And the viability, T/C (second compound 3.16 µM, first compound 0.316 µM)?
Answer: 94.4%

Question: And the viability, T/C (second compound 3.16 µM, first compound 1 µM)?
Answer: 81.9%

Question: And the viability, T/C (second compound 3.16 µM, first compound 3.16 µM)?
Answer: 65.3%

Question: What about the viability, T/C (second compound 3.16 µM, first compound 10 µM) of the same compound?
Answer: 41.4%

Question: And the viability, T/C [11]?
Answer: 97.2%

Question: And the viability, T/C [12]?
Answer: 95.7%

Question: And the viability, T/C (second compound 10 µM, first compound 0.316 µM)?
Answer: 96.7%

Question: What about the viability, T/C (second compound 10 µM, first compound 1 µM) of the same compound?
Answer: 71.1%

Question: And the viability, T/C (second compound 10 µM, first compound 3.16 µM)?
Answer: 64.9%

Question: What about the viability, T/C (second compound 10 µM, first compound 10 µM) of the same compound?
Answer: 36.6%

Question: Cn1ncnc1[C@H]1c2n[nH]c(=O)c3cc(F)cc(c23)N[C@@H]1c1ccc(F)cc1 + COC1C(OC(N)=O)C(O)C(Oc2ccc3c(O)c(NC(=O)c4ccc(O)c(CC=C(C)C)c4)c(=O)oc3c2C)OC1(C)C was tested. Which IC50 (second compound 0.0316 µM) did it give?
Answer: > 0.1 µM

Question: What about the IC50 (second compound 0.1 µM) of the same compound?
Answer: > 0.1 µM

Question: And the IC50 (second compound 0.316 µM)?
Answer: > 0.1 µM

Question: What about the IC50 (second compound 1 µM) of the same compound?
Answer: > 0.1 µM

Question: What about the IC50 (second compound 3.16 µM) of the same compound?
Answer: > 0.1 µM

Question: And the IC50 (second compound 10 µM)?
Answer: > 0.1 µM

Question: And the viability, T/C (second compound 0.0316 µM, first compound 0.000316 µM)?
Answer: 109%

Question: What about the viability, T/C (second compound 0.0316 µM, first compound 0.001 µM) of the same compound?
Answer: 93.7%

Question: What about the viability, T/C (second compound 0.0316 µM, first compound 0.00316 µM) of the same compound?
Answer: 104%

Question: What about the viability, T/C (second compound 0.0316 µM, first compound 0.01 µM) of the same compound?
Answer: 113%

Question: What about the viability, T/C [1] of the same compound?
Answer: 97.9%

Question: And the viability, T/C [2]?
Answer: 88.4%

Question: And the viability, T/C (second compound 0.1 µM, first compound 0.000316 µM)?
Answer: 108%

Question: What about the viability, T/C (second compound 0.1 µM, first compound 0.001 µM) of the same compound?
Answer: 108%

Question: And the viability, T/C (second compound 0.1 µM, first compound 0.00316 µM)?
Answer: 108%

Question: And the viability, T/C (second compound 0.1 µM, first compound 0.01 µM)?
Answer: 101%

Question: And the viability, T/C [3]?
Answer: 99.5%

Question: What about the viability, T/C [4] of the same compound?
Answer: 86.8%

Question: What about the viability, T/C (second compound 0.316 µM, first compound 0.000316 µM) of the same compound?
Answer: 114%

Question: What about the viability, T/C (second compound 0.316 µM, first compound 0.001 µM) of the same compound?
Answer: 102%

Question: What about the viability, T/C (second compound 0.316 µM, first compound 0.00316 µM) of the same compound?
Answer: 98.2%

Question: What about the viability, T/C (second compound 0.316 µM, first compound 0.01 µM) of the same compound?
Answer: 93.8%

Question: What about the viability, T/C [5] of the same compound?
Answer: 98.8%

Question: And the viability, T/C [6]?
Answer: 88.8%

Question: What about the viability, T/C (second compound 1 µM, first compound 0.000316 µM) of the same compound?
Answer: 107%

Question: And the viability, T/C (second compound 1 µM, first compound 0.001 µM)?
Answer: 113%

Question: What about the viability, T/C (second compound 1 µM, first compound 0.00316 µM) of the same compound?
Answer: 108%

Question: And the viability, T/C (second compound 1 µM, first compound 0.01 µM)?
Answer: 107%

Question: What about the viability, T/C [7] of the same compound?
Answer: 98.2%

Question: What about the viability, T/C [8] of the same compound?
Answer: 101%

Question: And the viability, T/C (second compound 3.16 µM, first compound 0.000316 µM)?
Answer: 108%

Question: And the viability, T/C (second compound 3.16 µM, first compound 0.001 µM)?
Answer: 103%

Question: What about the viability, T/C (second compound 3.16 µM, first compound 0.00316 µM) of the same compound?
Answer: 106%

Question: And the viability, T/C (second compound 3.16 µM, first compound 0.01 µM)?
Answer: 97.5%

Question: And the viability, T/C [9]?
Answer: 110%

Question: And the viability, T/C [10]?
Answer: 102%

Question: And the viability, T/C (second compound 10 µM, first compound 0.000316 µM)?
Answer: 114%

Question: And the viability, T/C (second compound 10 µM, first compound 0.001 µM)?
Answer: 104%

Question: What about the viability, T/C (second compound 10 µM, first compound 0.00316 µM) of the same compound?
Answer: 111%

Question: And the viability, T/C (second compound 10 µM, first compound 0.01 µM)?
Answer: 104%

Question: And the viability, T/C [11]?
Answer: 103%

Question: What about the viability, T/C [12] of the same compound?
Answer: 105%
